# ChEMBL document CHEMBL1201862, “PubChem BioAssay data set” (2004)
#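 Results reflect a 48-hour exposure of cells in 96-well plates to compound at five concentrations. GI50: concentration for 50% inhibition of growth.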 Activity calls are given as the source filed them. Rule as the data show it: active = GI50 up to about 1.1 µM and inactive = higher.
# Columns and labels:
# Assay in all cases: growth of human tumour cells (NCI), 48 h
# [1] = system: 786-0
# [2] = system: ACHN
# [3] = system: EKVX
# [4] = system: HCC 2998
# [5] = system: HCT-116
# [6] = system: HCT-15
# [7] = system: HT-29
# [8] = system: Hs-578T
# [9] = system: KM12
# [10] = system: MDA-MB-435
# [11] = system: Malme-3M
# [12] = system: PC-3
# [13] = system: RXF 393
# [14] = system: SF-268
# [15] = system: SF-539
# [16] = system: SW-620
# [17] = system: T47D
# [18] = system: UACC-62
# [19] = system: UO-31
# [20] = system: BT-549
SMILES,GI50 [1],GI50 [2],GI50 [3],GI50 [4],GI50 [5],GI50 [6],GI50 [7],GI50 [8],GI50 [9],GI50 [10],GI50 [11],GI50 [12],GI50 [13],GI50 [14],GI50 [15],GI50 [16],GI50 [17],GI50 [18],GI50 [19],GI50 [20]
CC(=O)OC1CC2C(=O)CC1(C)C2(C)C (configuration not stated),> 100 µM (inactive),> 100 µM (inactive),> 100 µM (inactive),> 100 µM (inactive),> 100 µM (inactive),> 100 µM,> 100 µM (inactive),> 100 µM (inactive),> 100 µM (inactive),> 100 µM (inactive),> 100 µM (inactive),> 100 µM (inactive),> 100 µM (inactive),> 100 µM (inactive),> 100 µM (inactive),> 83.8 µM (inactive),> 100 µM (inactive),> 100 µM (inactive),> 100 µM (inactive),
COc1ccc(-n2c(-c3ccccc3)cc(-c3cccs3)c2-c2cccs2)cc1,> 100 µM (inactive),> 100 µM (inactive),> 100 µM (inactive),> 100 µM (inactive),> 100 µM (inactive),> 100 µM,> 100 µM (inactive),> 100 µM (inactive),> 100 µM (inactive),> 100 µM (inactive),,,76.9 µM (inactive),> 100 µM (inactive),39.1 µM (inactive),> 100 µM (inactive),26.5 µM (inactive),> 100 µM (inactive),> 100 µM (inactive),
CCOC(=O)c1sc2c(c1OC(=O)c1ccc(OC)cc1)c(=O)n(-c1ccccc1)c(=S)n2-c1ccccc1,35.5 µM (inactive),> 100 µM (inactive),> 100 µM (inactive),16.3 µM (inactive),20.7 µM (inactive),> 100 µM,> 100 µM (inactive),> 100 µM (inactive),> 100 µM (inactive),> 100 µM (inactive),61.7 µM (inactive),> 100 µM (inactive),> 100 µM (inactive),> 100 µM (inactive),77.8 µM (inactive),> 100 µM (inactive),> 100 µM (inactive),> 100 µM (inactive),,
CC1(C)CC(O)CC(C)(C)N1O [TEMPOL HYDROXYLAMINE],> 100 µM (inactive),> 100 µM (inactive),> 100 µM (inactive),> 100 µM (inactive),> 100 µM (inactive),> 100 µM,> 100 µM (inactive),,> 100 µM (inactive),> 100 µM (inactive),> 100 µM (inactive),> 100 µM (inactive),> 100 µM (inactive),> 100 µM (inactive),> 100 µM (inactive),> 100 µM (inactive),> 100 µM (inactive),> 100 µM (inactive),> 100 µM (inactive),> 100 µM (inactive)
C=C1c2nc3ccccc3n2C=C(c2ccc(OC)cc2)N1c1ccc(OC)cc1,5.4 µM (inactive),7.16 µM (inactive),25.5 µM (inactive),20 µM (inactive),17.4 µM (inactive),25.5 µM,,,14.6 µM (inactive),12.1 µM (inactive),11 µM (inactive),19 µM (inactive),9.98 µM (inactive),,7.16 µM (inactive),37.8 µM (inactive),,16.1 µM (inactive),12.5 µM (inactive),22.1 µM (inactive)
O=C1/C(=C/c2ccc(Cl)cc2)NC(=S)N1CN1CCOCC1,> 100 µM (inactive),> 100 µM (inactive),> 100 µM (inactive),,> 100 µM (inactive),> 100 µM,> 100 µM (inactive),> 100 µM (inactive),> 100 µM (inactive),> 100 µM (inactive),> 100 µM (inactive),> 100 µM (inactive),,> 100 µM (inactive),,> 100 µM (inactive),,> 100 µM (inactive),> 100 µM (inactive),
S=C1/C(=N/c2ccccc2)N(C2CCCCC2)/C(=N\C2CCCCC2)N1c1ccccc1,75.7 µM (inactive),> 100 µM (inactive),> 100 µM (inactive),86.5 µM (inactive),68.9 µM (inactive),> 100 µM,78.5 µM (inactive),> 100 µM (inactive),42.7 µM (inactive),> 100 µM (inactive),> 100 µM (inactive),63.8 µM (inactive),> 100 µM (inactive),> 100 µM (inactive),1.18 µM (inactive),> 100 µM (inactive),82.6 µM (inactive),76.2 µM (inactive),> 100 µM (inactive),
CC1NOC(=O)C1/N=N/c1ccccc1Br (configuration not stated),17.5 µM (inactive),35.3 µM (inactive),34.2 µM (inactive),41.2 µM (inactive),32.5 µM (inactive),28.4 µM,39.6 µM (inactive),,21.2 µM (inactive),,26.2 µM (inactive),,13.9 µM (inactive),28.4 µM (inactive),22.3 µM (inactive),13.8 µM (inactive),,19.9 µM (inactive),18.6 µM (inactive),
O=C(OCC(Cl)(Cl)Cl)O[C@@H]1CCCC1(c1ccccc1)c1ccccc1,> 100 µM (inactive),> 100 µM (inactive),> 100 µM (inactive),45.4 µM (inactive),44.8 µM (inactive),77.4 µM,> 100 µM (inactive),,45.3 µM (inactive),24.2 µM (inactive),,37.5 µM (inactive),63.2 µM (inactive),> 100 µM (inactive),,> 100 µM (inactive),72.1 µM (inactive),> 100 µM (inactive),> 100 µM (inactive),> 100 µM (inactive)
CNC(=O)OCc1nc(SC(C)C)n(C)c1COC(=O)NC,> 100 µM (inactive),> 100 µM (inactive),> 100 µM (inactive),> 100 µM (inactive),> 100 µM (inactive),> 100 µM,> 100 µM (inactive),,> 100 µM (inactive),,> 100 µM (inactive),,33.4 µM (inactive),> 91.6 µM (inactive),> 100 µM (inactive),> 100 µM (inactive),,> 100 µM (inactive),> 100 µM (inactive),
O=C1C(=O)N(C23CC4CC(CC(C4)C2)C3)C(=S)N1c1ccccc1,> 100 µM (inactive),> 100 µM (inactive),43.5 µM (inactive),> 100 µM (inactive),93.5 µM (inactive),> 100 µM,> 100 µM (inactive),> 100 µM (inactive),> 100 µM (inactive),> 100 µM (inactive),> 100 µM (inactive),> 100 µM (inactive),> 100 µM (inactive),> 100 µM (inactive),> 100 µM (inactive),> 100 µM (inactive),> 100 µM (inactive),> 100 µM (inactive),> 100 µM (inactive),
Cc1nc(OCc2ccccc2)c2ncn(CCO)c2n1,> 100 µM (inactive),> 100 µM (inactive),,,> 100 µM (inactive),,> 100 µM (inactive),> 100 µM (inactive),> 100 µM (inactive),> 100 µM (inactive),,> 100 µM (inactive),> 100 µM (inactive),> 100 µM (inactive),> 100 µM (inactive),> 100 µM (inactive),,> 100 µM (inactive),> 100 µM (inactive),> 100 µM (inactive)
CSCC[C@H]1C(=O)N=C(N)N1C(=O)OCc1ccccc1,26.2 µM (inactive),34.7 µM (inactive),53.6 µM (inactive),95.9 µM (inactive),17.6 µM (inactive),28.6 µM,38.3 µM (inactive),18 µM (inactive),42.9 µM (inactive),34 µM (inactive),33.3 µM (inactive),50.4 µM (inactive),17.3 µM (inactive),38.4 µM (inactive),,17.1 µM (inactive),,19.1 µM (inactive),30.8 µM (inactive),19.8 µM (inactive)
O=C1CCC2(c3ccc(Cl)cc3)Nc3ncncc3N12 (configuration not stated),> 10 µM (inactive),> 10 µM (inactive),> 10 µM (inactive),> 10 µM (inactive),,> 10 µM,> 10 µM (inactive),> 10 µM (inactive),> 10 µM (inactive),> 10 µM (inactive),> 10 µM (inactive),> 10 µM (inactive),,> 10 µM (inactive),> 10 µM (inactive),> 10 µM (inactive),,> 10 µM (inactive),> 10 µM (inactive),> 10 µM (inactive)
CC(=O)NNc1nc(C)c(C(=O)NNC(=O)C(=O)Nc2ccc(C)c(C)c2)s1,> 100 µM (inactive),> 100 µM (inactive),> 100 µM (inactive),> 100 µM (inactive),> 100 µM (inactive),78.9 µM,> 100 µM (inactive),,42.5 µM (inactive),,> 100 µM (inactive),,> 100 µM (inactive),> 100 µM (inactive),> 100 µM (inactive),> 100 µM (inactive),,> 100 µM (inactive),74 µM (inactive),
COc1cc(/C=C\C(=O)O)ccc1OCc1ccccc1,> 100 µM (inactive),> 100 µM (inactive),> 100 µM (inactive),> 100 µM (inactive),> 100 µM (inactive),> 100 µM,,49.3 µM (inactive),0.217 µM (active),> 100 µM (inactive),0.053 µM (active),> 100 µM (inactive),> 100 µM (inactive),> 100 µM (inactive),> 100 µM (inactive),> 100 µM (inactive),> 100 µM (inactive),> 100 µM (inactive),> 100 µM (inactive),
Oc1ccc(-c2c3c(nc4c2CCc2ccc(Br)cc2-4)-c2cc(Br)ccc2CC3)cc1,18.9 µM (inactive),20.7 µM (inactive),22 µM (inactive),20.7 µM (inactive),24.4 µM (inactive),18.9 µM,,,19.7 µM (inactive),20 µM (inactive),25.8 µM (inactive),17.9 µM (inactive),,21.7 µM (inactive),,,21.2 µM (inactive),21.3 µM (inactive),18.7 µM (inactive),24 µM (inactive)
